Measured values taken from US20080003660A1, “Use of fast-release pristinamycin-type and polyether ionophore type antimicrobial agents in the production of ethanol” (priority 2006, published 2008).

Tests used:
[1] = pH in the fermenters; cited from earlier work
L. plantarum = test: development of resistance test, 10 week duration; assay type: cell-based; settings: 10 week duration of the test
Excerpt: One very effective control program involves the introduction of pristinamycin-type antimicrobial agents, and particularly virginiamycin, to the process. […] Usually, the “waste” byproduct, known as “Dried Distillers Grains with solubles (DDGS), is sold as animal feed, going 45% to dairy, 35% to beef, 15% to swine, and 5% to poultry industries. This is an important factor in the profitability of an ethanol production process, and the total amount of this byproduct produced per year is on the order of 3.5 million metric tons per year. The presence of residual antimicrobial agents in this material can adversely affect the value of this byproduct, as small residual amounts of antimicrobial agents in feed will promote the development of agent-resistant microorganisms. We have tested DDG samples from 8 major ethanol producers using virginiamycin to control microorganisms and found no detectable amount of virginiamycin in the DDG (<1 ppm via the validated Eurofins analysis and <1 ppb via an unvalidated experimental analytical procedure). […] Generally, however, the virginiamycin in mash is destroyed by drying so virginiamycin must be re-added to the feed if so desired. Other effective control programs employ polyether ionophore antimicrobial agents, which provide many of the benefits obtained with pristinamycin-type antimicrobial agents. […]

[2] = dissolution of 0.1 gram powder in 4 liters of stirred water; assay type: physicochemical; settings: 5.2 to 10 micron average particle size, 0.1 gram in 4 liters water, continuously stirred
Excerpt: The over-riding factor in controlling pests such as lactobacilli, however, is the rate of dissolution of small granular pristinamycin-type antimicrobial agents and polyether ionophore-type antimicrobial agents in water or mash. A 0.1 gram sample of a 5.2 to 10 micron average particle size virginiamycin was placed in a beaker with 4 liters of water, and the composition was continuously and vigorously stirred (providing very good mixing and turbulence). The presence of undissolved crystals was very evident. […] Such slow dissolution will reduce effectiveness of pulse treatments as it takes a long time for the added agents to become solubilized and effective, and will reduce the highest concentration of added agents resulting from a pulsed addition as some of the agent may be removed from the fermentator or other tank before the maximum amount of added agent is solubilized, and because some added agent may not dissolve at all. The solubility of monensin, virginiamycin, and similar pristinamycin-type antimicrobial agents and polyether ionophore-type antimicrobial agents in water is very low. Much more important, however, is the rate of dissolution of small granular pristinamycin-type antimicrobial agents and polyether ionophore-type antimicrobial agents in water. […]

[3] = stability in water (hydrolysis); assay type: physicochemical
Protocol: In another embodiment at least a portion of said antimicrobial agent is added to the mash as a composition comprising particles comprising said substantially water insoluble antimicrobial agent(s), said composition being in the form of a slurry. In another embodiment at least a portion of said antimicrobial agent is added to the mash as a composition comprising particles comprising said substantially water insoluble antimicrobial agent(s) and having a weight mean average diameter of between 0.1 and 2 microns, said composition being in the form of a slurry. Many of the preferred antimicrobial agents have a slight instability when dissolved in water, which can be significant over long storage periods. […] Coating particles with protectorants will reduce stability problems. Placing the slurry in a […] substantially water-free material, be it fatty acids, surfactants, dispersants, solvents in which the antimicrobial agents have minimal solubility (called an “oil flowable slurry”), or any combination of the above can reduce loss of antimicrobial agent. […] An oil-flowable slurry can be readily prepared by milling the antimicrobial agents as described herein, but where the solvent replaces the water in the milling process. […]

[4] = assay type: physicochemical
Excerpt: In one embodiment, the liquid phase of the slurry comprises water and up to 25%, for example between 15% and 23%, of ethanol. This ethanol will pre-dissolve a very small portion of the antimicrobial agents from the particles, giving the injected slurry a small but almost instantaneous punch.

[5] = cited from earlier work

For penicillin, the “inactivation at fermenter pH” value [1] is listed as “partially inactivated”.

For virginiamycin, the “time for L. plantarum to develop resistance” value (L. plantarum) was “no development of resistance”, the “time before only a few crystals remained visible” value [2] was “on the order of an hour” and the “stability when in water” value [3] was “slow hydrolysis”. For the same compound, the solubility in water/ethanol [4] was “high solubility” and the solubility in water [5] was 0.0001 grams/l.

For `CC[C@@]1([C@@H]2O[C@@H]([C@H]3O[C@@](O)(CO)[C@H](C)C[C@@H]3C)C[C@@H]2C)CC[C@H]([C@]2(C)CC[C@]3(C[C@H](O)[C@@H](C)[C@@H]([C@@H](C)[C@@H](OC)[C@H](C)C(=O)O)O3)O2)O1` [monensin], the solubility in water/ethanol [4] was “high solubility”.

In the case of `[H]/N=C(/N)N[C@H]1[C@H](O)[C@@H](O)[C@H](O[C@@H]2O[C@@H](C)[C@](O)(C=O)[C@H]2O[C@@H]2O[C@@H](CO)[C@H](O)[C@@H](O)[C@@H]2NC)[C@@H](N/C(N)=N\[H])[C@@H]1O` [streptomycin], the “inactivation at fermenter pH” value [1] is given as “partially inactivated”.
